Measurements from patent publication US20250122479A1, “GENERATION OF LUNG ORGANOIDS FROM PLURIPOTENT STEM CELLS AND USE THEREOF” (THE TRUSTEES OF COLUMBIA UNIVERSITY IN THE CITY OF NEW YORK, priority 2022, published 2025).

What was measured:
Assay type in all cases: cell-based, human
TLOs [1] = test: Distal differentiation of TLOs (removal of CHIR and KGF, TGF-b blockade with SB); conditions: removing CHIR and KGF and blocking TGF-b signaling using SB (DCI+SB)
Protocol: We next used empirical approaches to differentiate the cells into more mature proximal of distal lineages.
(§1) Total RNA was extracted according to manufacturer's instructions using the Direct-zol™ RNA Microprep (Zymo Research, Irvine, CA), and 500 ng of total RNA was reverse transcribed using the qScript™ XLT cDNA SuperMix (Quantabio, Beverly, MA). Technical triplicates of […] reaction (for use in Applied Biosystems QuantStudio7 384-well System, Waltham, MA) were prepared with 3 μl of diluted cDNA and run for 40 cycles. Relative gene expression was calculated based on the average cycle (Ct) value, normalized to GAPDH as the internal control and reported as fold change (2(−ddCT)).

ABCA3−/− TLOs = test: ER stress induction by tunicamycin, ABCA3-/- TLOs; conditions: one week after removal of tunicamycin; compared with HPS1−/− TLOs
Protocol: (§2) We challenged for 5 hours with tunicamycin, a protein glycosylation inhibitor that prevents protein maturation and causes ER stress.^65 and measured ER stress components after 5 hrs, upon removal tunicamycin, and after 1 week (FIG. 7b). […] Of particular interest is ATF4, as ATF4 is an effector protein implicated not only in the UPR^ER via PERK phosphorylation but also in the integrated stress response (ISR)^66.
as §1

WT (R2) TLO = test: ER stress induction by tunicamycin, WT TLOs; conditions: one week after removal of tunicamycin (5 hour challenge)
Protocol: as §2, §1

HPS1−/− TLOs [2] = conditions: one week after removal of tunicamycin
Protocol: as §2

HPS1−/− TLOs [3] = test: ER stress induction by tunicamycin, HPS1-/- TLOs
Protocol: as §2, §1

TLOs [4] = test: CHIR withdrawal from TLOs cultured in CK-DCI; conditions: 1 to 5 days after withdrawal of CHIR; Ki67, cCASP3, AT2 marker RT-PCR
Protocol: As removing WNT signaling has been reported to induce AT2 maturation in alveolospheres,^26,27 we withdrew CHIR.
Matrigel embedded lung organoids can be used for TLO generation when they reach d42 of development. Media was removed from the transwell and 1 ml of 2 mg/ml dispase (Corning) was added to release lung organoid from the Matrigel for 30-45 minutes in normoxic incubator. The organoid was transferred to a 15 ml conical tube and washed with stop media (DMEM (Corning), 5% FBS (Atlanta Biologicals; Flowery Branch, Georgia), 1% Glutamax (ThermoFisher)) to neutralize Dispase, then centrifuged at […] for 5 minutes. The pellet was incubated with 1 ml of 0.05% Trypsin/EDTA in normoxic incubator for 10-12 minutes with occasional pipetting with a P1000 pipet tip. Single cell dissociation was verified using a bright field microscope. If a single cell suspension was not obtained after 12 minutes, cells were washed with stop media and incubated for additional 5 minutes with 0.05% Trypsin/EDTA. Cells were counted using a hemocytometer and 400 cells/μl of undiluted Matrigel were plated in a well of a 12-well non-tissue culture plate. […]

NC(=O)c1ccc(-c2nc(-c3ccc4c(c3)OCO4)c(-c3ccccn3)[nH]2)cc1 [SB, SB431542]
expression of AT2 and AT1 markers (TLOs [1]): further upregulation of not only AT2, but also of AT1 markers

tunicamycin
expression of ER stress mediators (ABCA3−/− TLOs): A similar response, though less pronounced
expression of ER stress mediators (XBP1, BIP, CHOP, ATF4) (WT (R2) TLO): expression of BIP, CHOP and ATF4 were strikingly increased
apoptosis (HPS1−/− TLOs [2]): increased apoptosis
expression of ER stress mediators (BIP, XBP1 splicing) (HPS1−/− TLOs [3]; after 5 hrs tunicamycin challenge): significantly increased expression of BIP and of XBP1 splicing
expression of ER stress mediators (XBP1 splicing, CHOP, ATF4) (HPS1−/− TLOs [3]; one week after removal of tunicamycin (5 hour challenge)): maintained elevated splicing of XBP1 but entirely failed to upregulate CHOP and ATF4

Cc1c[nH]c(-c2cnc(NCCNc3ccc(C#N)cn3)nc2-c2ccc(Cl)cc2Cl)n1 [CHIR, CHIR99021]
effect of CHIR withdrawal on TLOs (TLOs [4]): disintegration, proliferation arrest (FIG. 3b), apoptosis (FIG. 3c) and loss of AT2 markers
